How the values were obtained:
Format in all cases: functional, cell-based
[1] = target: T1, Solute carrier organic anion transporter family member 1B1 (Homo sapiens, UniProt Q9Y6L6); assay: TP_TRANSPORTER: inhibition of estradiol-17beta-glucuronide uptake(estradiol-17beta-glucuronide:0.02uM) in OATP1B1-expressing HEK293 cells
T1 sequence (Q9Y6L6 whole entry): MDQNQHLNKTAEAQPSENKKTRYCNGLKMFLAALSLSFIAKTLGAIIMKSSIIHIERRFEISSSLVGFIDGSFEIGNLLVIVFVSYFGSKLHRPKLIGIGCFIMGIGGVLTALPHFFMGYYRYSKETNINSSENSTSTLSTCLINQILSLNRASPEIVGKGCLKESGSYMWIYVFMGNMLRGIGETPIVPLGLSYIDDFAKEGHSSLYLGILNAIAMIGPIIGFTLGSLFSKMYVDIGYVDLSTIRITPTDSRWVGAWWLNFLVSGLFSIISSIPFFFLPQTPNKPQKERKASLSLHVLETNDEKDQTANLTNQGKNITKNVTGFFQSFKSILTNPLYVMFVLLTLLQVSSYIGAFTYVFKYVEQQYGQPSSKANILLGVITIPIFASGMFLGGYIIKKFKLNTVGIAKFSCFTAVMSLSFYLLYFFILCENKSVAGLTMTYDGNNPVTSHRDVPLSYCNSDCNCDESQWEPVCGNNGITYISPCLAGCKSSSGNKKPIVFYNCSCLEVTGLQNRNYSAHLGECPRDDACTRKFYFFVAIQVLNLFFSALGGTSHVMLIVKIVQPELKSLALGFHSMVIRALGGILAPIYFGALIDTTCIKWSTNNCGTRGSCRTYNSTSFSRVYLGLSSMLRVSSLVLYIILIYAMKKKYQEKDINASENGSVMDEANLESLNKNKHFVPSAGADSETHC

[2] = target: ATP-binding cassette sub-family C member 2 (Homo sapiens, UniProt Q92887); assay: TP_TRANSPORTER: inhibition of calcein-AM efflux in MRP2-expressing MDCK cells
[3] = target: ATP-dependent translocase ABCB1 (Homo sapiens, UniProt P08183); assay: TP_TRANSPORTER: inhibition of calcein-AM efflux in MDR1-expressing MDCK cells
ATP-dependent translocase ABCB1, sequence (P08183 whole entry): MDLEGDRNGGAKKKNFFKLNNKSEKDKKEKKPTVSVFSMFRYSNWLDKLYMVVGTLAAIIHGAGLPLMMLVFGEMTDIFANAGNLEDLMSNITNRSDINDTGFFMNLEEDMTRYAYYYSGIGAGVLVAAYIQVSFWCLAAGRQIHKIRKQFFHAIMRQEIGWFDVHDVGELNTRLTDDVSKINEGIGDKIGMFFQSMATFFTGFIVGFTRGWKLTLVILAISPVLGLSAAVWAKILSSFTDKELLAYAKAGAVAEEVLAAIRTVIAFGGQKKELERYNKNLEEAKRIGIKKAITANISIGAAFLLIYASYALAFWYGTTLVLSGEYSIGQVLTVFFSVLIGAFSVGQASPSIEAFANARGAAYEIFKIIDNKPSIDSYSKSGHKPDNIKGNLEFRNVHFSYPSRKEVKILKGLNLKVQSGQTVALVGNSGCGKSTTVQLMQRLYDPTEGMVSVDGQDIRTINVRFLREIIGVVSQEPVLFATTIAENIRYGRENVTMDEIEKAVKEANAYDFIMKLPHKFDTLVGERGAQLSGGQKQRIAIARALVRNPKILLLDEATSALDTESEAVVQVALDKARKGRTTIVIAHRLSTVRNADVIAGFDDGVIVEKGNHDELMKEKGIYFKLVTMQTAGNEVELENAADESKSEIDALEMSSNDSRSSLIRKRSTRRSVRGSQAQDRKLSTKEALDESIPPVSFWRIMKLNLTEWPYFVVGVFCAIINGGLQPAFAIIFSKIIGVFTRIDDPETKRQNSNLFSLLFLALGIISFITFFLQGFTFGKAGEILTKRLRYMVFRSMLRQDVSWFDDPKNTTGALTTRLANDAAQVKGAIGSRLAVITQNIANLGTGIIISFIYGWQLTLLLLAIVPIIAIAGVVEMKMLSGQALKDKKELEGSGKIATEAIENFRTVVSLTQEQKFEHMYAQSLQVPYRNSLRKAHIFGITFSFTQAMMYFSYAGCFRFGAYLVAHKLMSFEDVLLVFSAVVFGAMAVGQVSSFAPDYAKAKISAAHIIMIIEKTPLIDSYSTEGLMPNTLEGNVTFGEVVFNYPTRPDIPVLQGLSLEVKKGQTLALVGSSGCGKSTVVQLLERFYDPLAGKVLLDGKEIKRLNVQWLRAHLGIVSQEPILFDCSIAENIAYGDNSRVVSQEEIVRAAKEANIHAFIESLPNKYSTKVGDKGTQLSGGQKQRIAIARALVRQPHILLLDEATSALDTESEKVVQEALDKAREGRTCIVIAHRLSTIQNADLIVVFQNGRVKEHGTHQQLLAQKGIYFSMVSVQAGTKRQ

ATP-binding cassette sub-family C member 2, sequence (Q92887 whole entry): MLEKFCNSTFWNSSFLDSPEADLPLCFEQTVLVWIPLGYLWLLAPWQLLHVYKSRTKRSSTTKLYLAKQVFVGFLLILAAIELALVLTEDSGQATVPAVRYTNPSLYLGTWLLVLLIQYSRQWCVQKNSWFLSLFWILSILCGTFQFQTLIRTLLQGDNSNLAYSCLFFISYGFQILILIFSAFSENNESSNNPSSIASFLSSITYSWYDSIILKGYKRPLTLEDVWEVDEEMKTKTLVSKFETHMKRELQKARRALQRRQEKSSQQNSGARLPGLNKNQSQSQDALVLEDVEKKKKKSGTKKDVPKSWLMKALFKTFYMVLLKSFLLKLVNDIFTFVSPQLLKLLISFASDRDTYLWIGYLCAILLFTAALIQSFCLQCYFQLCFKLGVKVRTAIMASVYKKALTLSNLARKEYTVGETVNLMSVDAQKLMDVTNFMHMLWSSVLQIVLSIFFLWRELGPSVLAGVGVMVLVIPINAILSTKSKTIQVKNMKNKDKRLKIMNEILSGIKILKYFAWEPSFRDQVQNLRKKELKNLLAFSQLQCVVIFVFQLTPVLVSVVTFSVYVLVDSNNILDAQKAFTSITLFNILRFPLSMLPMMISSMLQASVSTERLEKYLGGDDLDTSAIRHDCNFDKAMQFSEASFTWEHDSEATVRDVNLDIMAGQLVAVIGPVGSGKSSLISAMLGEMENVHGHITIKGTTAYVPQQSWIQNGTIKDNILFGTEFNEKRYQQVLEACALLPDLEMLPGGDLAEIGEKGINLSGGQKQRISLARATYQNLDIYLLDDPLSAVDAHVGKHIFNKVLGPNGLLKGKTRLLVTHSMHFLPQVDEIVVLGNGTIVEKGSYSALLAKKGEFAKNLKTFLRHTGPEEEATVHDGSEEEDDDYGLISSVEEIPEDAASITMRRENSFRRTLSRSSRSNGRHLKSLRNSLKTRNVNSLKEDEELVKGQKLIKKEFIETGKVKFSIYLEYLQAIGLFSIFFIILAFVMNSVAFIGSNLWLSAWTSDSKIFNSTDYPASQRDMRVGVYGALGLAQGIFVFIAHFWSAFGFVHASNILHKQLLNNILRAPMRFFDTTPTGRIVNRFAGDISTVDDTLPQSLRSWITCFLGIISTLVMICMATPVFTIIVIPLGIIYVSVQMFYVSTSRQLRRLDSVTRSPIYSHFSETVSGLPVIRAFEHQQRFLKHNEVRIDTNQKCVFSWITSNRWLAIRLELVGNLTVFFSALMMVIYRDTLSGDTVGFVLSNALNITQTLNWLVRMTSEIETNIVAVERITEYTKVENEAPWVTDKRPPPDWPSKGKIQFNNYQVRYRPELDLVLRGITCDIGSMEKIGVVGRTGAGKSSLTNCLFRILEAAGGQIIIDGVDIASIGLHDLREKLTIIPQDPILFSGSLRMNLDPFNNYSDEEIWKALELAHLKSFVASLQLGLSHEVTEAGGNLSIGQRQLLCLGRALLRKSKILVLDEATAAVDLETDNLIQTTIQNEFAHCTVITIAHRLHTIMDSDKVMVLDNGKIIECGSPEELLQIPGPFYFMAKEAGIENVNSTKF

| SMILES | IC50 ([1]; read-out: IC50) | IC50 ([2]; read-out: IC50) | IC50 ([3]; read-out: IC50) | IC50 ([2]; mdck) | IC50 ([3]; mdck) | IC50 ([1]; hek293) |
| --- | --- | --- | --- | --- | --- | --- |
| CC(C)c1c(C(=O)Nc2ccccc2)c(-c2ccccc2)c(-c2ccc(F)cc2)n1CC[C@@H]1C[C@@H](O)CC(=O)O1 [ATORVASTATIN LACTONE] | 2.6 µM | 15 µM | 14 µM | – | – | – |
| CO[C@H]1/C=C/O[C@@]2(C)Oc3c(C)c(O)c4c(O)c(cc(O)c4c3C2=O)NC(=O)/C(C)=C\C=C\[C@H](C)[C@H](O)[C@@H](C)[C@@H](O)[C@@H](C)[C@H](OC(C)=O)[C@@H]1C [RIFAMYCIN] | 0.23 µM | – | – | – | – | – |
| CC[C@]1(O)C[C@@H]2CN(CCc3c([nH]c4ccccc34)[C@@](C(=O)OC)(c3cc4c(cc3OC)N(C)[C@H]3[C@@](O)(C(=O)OC)[C@H](OC(C)=O)[C@]5(CC)C=CCN6CC[C@]43[C@@H]65)C2)C1 [VINBLASTINE] | – | 21 µM | – | – | – | – |

Results, then the compound that gave them:

| IC50 ([1]; read-out: IC50) | IC50 ([2]; read-out: IC50) | IC50 ([3]; read-out: IC50) | IC50 ([2]; mdck) | IC50 ([3]; mdck) | IC50 ([1]; hek293) | SMILES |
| --- | --- | --- | --- | --- | --- | --- |
| – | – | – | is not an inhibitor [IC50=-(>100uM)] | is not an inhibitor [IC50=-(>100uM)] | – | CC(C)c1c(C(=O)Nc2ccccc2)c(-c2ccccc2)c(-c2ccc(F)cc2)n1CC[C@@H](O)C[C@@H](O)CC(=O)O [ATORVASTATIN] |
| 4 µM | – | – | is not an inhibitor [IC50=-(>100uM)] | is not an inhibitor [IC50=-(>100uM)] | – | CC[C@H](C)C(=O)O[C@H]1C[C@@H](C)C=C2C=C[C@H](C)[C@H](CC[C@@H](O)C[C@@H](O)CC(=O)O)[C@H]21 [LOVASTATIN ACID] |
| 28 µM | – | – | is not an inhibitor [IC50=-(>33uM)] | – | – | CC[C@H](C)C(=O)O[C@H]1C[C@@H](C)C=C2C=C[C@H](C)[C@H](CC[C@@H]3C[C@@H](O)CC(=O)O3)[C@H]21 [LOVASTATIN] |
| – | – | – | is not an inhibitor [IC50=-(>100uM)] | is not an inhibitor [IC50=-(>100uM)] | is not an inhibitor [IC50=-(>100uM)] | CC[C@H](C)C(=O)O[C@H]1C[C@H](O)C=C2C=C[C@H](C)[C@H](CC[C@@H](O)C[C@@H](O)CC(=O)O)[C@H]21 [PRAVASTATIN] |
| 3.6 µM | – | – | is not an inhibitor [IC50=-(>100uM)] | is not an inhibitor [IC50=-(>100uM)] | – | CCC(C)(C)C(=O)O[C@H]1C[C@@H](C)C=C2C=C[C@H](C)[C@H](CC[C@@H](O)C[C@@H](O)CC(=O)O)[C@H]21 [TENIVASTATIN] |
